Laboratory results reported in ChEMBL document CHEMBL1201862, “PubChem BioAssay data set” (2004).
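Assay format: 96-well plates, 48-hour exposure. Here, GI50 denotes the concentration required for 50% inhibition of growth.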 Active and inactive are the calls of the source. Cut-off read from the data, not from the text of the source: active = GI50 up to about 1.1 µM and inactive = higher.

What was measured:
Test in all cases: NCI-60 cell line screen, 48 h
A498 = test system: A498
RPMI-8226 = test system: RPMI-8226
SNB-75 = test system: SNB-75
SR = test system: SR
786-0 = test system: 786-0
A549 = test system: A549
ACHN = test system: ACHN
CAKI-1 = test system: CAKI-1
COLO 205 = test system: COLO 205
DU-145 = test system: DU-145
EKVX = test system: EKVX
HCC 2998 = test system: HCC 2998
HCT-116 = test system: HCT-116
HCT-15 = test system: HCT-15
HOP-62 = test system: HOP-62
HOP-92 = test system: HOP-92
HT-29 = test system: HT-29
Hs-578T = test system: Hs-578T
IGROV-1 = test system: IGROV-1
K562 = test system: K562
KM12 = test system: KM12
LOX IMVI = test system: LOX IMVI
M14 = test system: M14
MCF7 = test system: MCF7
MDA-MB-435 = test system: MDA-MB-435
MDA-N = test system: MDA-N
Malme-3M = test system: Malme-3M
NCI-H226 = test system: NCI-H226
NCI-H23 = test system: NCI-H23
NCI-H460 = test system: NCI-H460
NCI-H522 = test system: NCI-H522
NCI/ADR-RES = test system: NCI/ADR-RES
OVCAR-3 = test system: OVCAR-3
OVCAR-4 = test system: OVCAR-4
OVCAR-5 = test system: OVCAR-5
OVCAR-8 = test system: OVCAR-8
PC-3 = test system: PC-3
SF-268 = test system: SF-268
SF-295 = test system: SF-295
SF-539 = test system: SF-539
SK-MEL-28 = test system: SK-MEL-28
SK-MEL-2 = test system: SK-MEL-2
SK-MEL-5 = test system: SK-MEL-5
SK-OV-3 = test system: SK-OV-3
SN12C = test system: SN12C
SNB-19 = test system: SNB-19
SW-620 = test system: SW-620
T47D = test system: T47D
TK-10 = test system: TK-10
U-251 = test system: U-251
UACC-257 = test system: UACC-257
UACC-62 = test system: UACC-62
CCRF-CEM = test system: CCRF-CEM
HL-60 = test system: HL-60
MDA-MB-231 = test system: MDA-MB-231
MOLT-4 = test system: MOLT-4
RXF 393 = test system: RXF 393
UO-31 = test system: UO-31

CCCCCCCCCCCCCCCCCCOC[C@H](COP(=O)(O)O[C@H]1[C@H](O)[C@@H](O)[C@H](O)C[C@H]1O)OC
GI50 (A498): > 100 µM (inactive) | GI50 (RPMI-8226): 22.1 µM (inactive) | GI50 (SNB-75): 19.2 µM (inactive) | GI50 (SR): 15.8 µM (inactive)

CCOC(=O)CCC1(CCC(=O)OCC)CCCCCCCCC(CCC(=O)OCC)(CCC(=O)OCC)C(=O)C1=O
GI50 (786-0): > 100 µM (inactive) | GI50 (A498): > 100 µM (inactive) | GI50 (A549): > 100 µM (inactive) | GI50 (ACHN): > 100 µM (inactive) | GI50 (CAKI-1): > 100 µM (inactive) | GI50 (COLO 205): > 100 µM (inactive) | GI50 (DU-145): > 100 µM (inactive) | GI50 (EKVX): > 100 µM (inactive) | GI50 (HCC 2998): > 100 µM (inactive) | GI50 (HCT-116): > 100 µM (inactive) | GI50 (HCT-15): > 100 µM | GI50 (HOP-62): > 100 µM (inactive) | GI50 (HOP-92): > 100 µM (inactive) | GI50 (HT-29): > 100 µM (inactive) | GI50 (Hs-578T): > 100 µM (inactive) | GI50 (IGROV-1): > 100 µM (inactive) | GI50 (K562): > 100 µM (inactive) | GI50 (KM12): > 100 µM (inactive) | GI50 (LOX IMVI): > 100 µM (inactive) | GI50 (M14): > 100 µM (inactive) | GI50 (MCF7): > 100 µM (inactive) | GI50 (MDA-MB-435): > 100 µM (inactive) | GI50 (MDA-N): > 100 µM (inactive) | GI50 (Malme-3M): > 100 µM (inactive) | GI50 (NCI-H226): > 100 µM (inactive) | GI50 (NCI-H23): > 100 µM (inactive) | GI50 (NCI-H460): > 100 µM (inactive) | GI50 (NCI-H522): 35.5 µM (inactive) | GI50 (NCI/ADR-RES): > 100 µM (inactive) | GI50 (OVCAR-3): > 100 µM (inactive) | GI50 (OVCAR-4): > 100 µM (inactive) | GI50 (OVCAR-5): > 100 µM (inactive) | GI50 (OVCAR-8): > 100 µM (inactive) | GI50 (PC-3): > 100 µM (inactive) | GI50 (SF-268): > 100 µM (inactive) | GI50 (SF-295): > 100 µM (inactive) | GI50 (SF-539): > 100 µM (inactive) | GI50 (SK-MEL-28): > 100 µM (inactive) | GI50 (SK-MEL-2): > 100 µM (inactive) | GI50 (SK-MEL-5): > 100 µM (inactive) | GI50 (SK-OV-3): > 100 µM (inactive) | GI50 (SN12C): > 100 µM (inactive) | GI50 (SNB-19): > 100 µM (inactive) | GI50 (SNB-75): 82.8 µM (inactive) | GI50 (SR): > 100 µM (inactive) | GI50 (SW-620): > 100 µM (inactive) | GI50 (T47D): 79.1 µM (inactive) | GI50 (TK-10): > 100 µM (inactive) | GI50 (U-251): > 100 µM (inactive) | GI50 (UACC-257): > 100 µM (inactive) | GI50 (UACC-62): > 100 µM (inactive)

CN(C)CCCNC(=O)CCNC(=O)c1cc(NC(=O)c2cc(NC(=O)c3cc(NC(=O)CCCNC(=O)c4cc(NC(=O)c5cc(NC(=O)c6nccn6C)cn5C)cn4C)cn3C)cn2C)cn1C
GI50 (786-0): > 100 µM (inactive) | GI50 (A498): > 100 µM (inactive) | GI50 (A549): > 100 µM (inactive) | GI50 (ACHN): > 100 µM (inactive) | GI50 (CAKI-1): > 100 µM (inactive) | GI50 (CCRF-CEM): > 100 µM (inactive) | GI50 (COLO 205): > 100 µM (inactive) | GI50 (EKVX): > 100 µM (inactive) | GI50 (HCC 2998): > 100 µM (inactive) | GI50 (HCT-116): > 100 µM (inactive) | GI50 (HCT-15): > 100 µM | GI50 (HL-60): > 100 µM (inactive) | GI50 (HOP-62): > 100 µM (inactive) | GI50 (HOP-92): > 100 µM (inactive) | GI50 (HT-29): > 100 µM (inactive) | GI50 (Hs-578T): > 100 µM (inactive) | GI50 (IGROV-1): > 100 µM (inactive) | GI50 (K562): > 100 µM (inactive) | GI50 (KM12): > 100 µM (inactive) | GI50 (LOX IMVI): > 100 µM (inactive) | GI50 (M14): > 100 µM (inactive) | GI50 (MCF7): > 100 µM (inactive) | GI50 (MDA-MB-231): > 100 µM (inactive) | GI50 (MDA-MB-435): > 100 µM (inactive) | GI50 (MDA-N): > 100 µM (inactive) | GI50 (MOLT-4): > 100 µM (inactive) | GI50 (Malme-3M): > 100 µM (inactive) | GI50 (NCI-H226): > 100 µM (inactive) | GI50 (NCI-H23): > 100 µM (inactive) | GI50 (NCI-H460): > 100 µM (inactive) | GI50 (NCI-H522): > 100 µM (inactive) | GI50 (NCI/ADR-RES): > 100 µM (inactive) | GI50 (OVCAR-3): > 100 µM (inactive) | GI50 (OVCAR-4): > 100 µM (inactive) | GI50 (OVCAR-5): > 100 µM (inactive) | GI50 (OVCAR-8): > 100 µM (inactive) | GI50 (PC-3): > 100 µM (inactive) | GI50 (RPMI-8226): > 100 µM (inactive) | GI50 (RXF 393): > 100 µM (inactive) | GI50 (SF-268): > 100 µM (inactive) | GI50 (SF-295): > 100 µM (inactive) | GI50 (SF-539): > 100 µM (inactive) | GI50 (SK-MEL-28): > 100 µM (inactive) | GI50 (SK-MEL-2): > 100 µM (inactive) | GI50 (SK-MEL-5): > 100 µM (inactive) | GI50 (SK-OV-3): > 100 µM (inactive) | GI50 (SN12C): > 100 µM (inactive) | GI50 (SNB-19): > 100 µM (inactive) | GI50 (SNB-75): > 100 µM (inactive) | GI50 (SW-620): > 100 µM (inactive) | GI50 (TK-10): > 100 µM (inactive) | GI50 (U-251): > 100 µM (inactive) | GI50 (UACC-257): > 100 µM (inactive) | GI50 (UO-31): > 100 µM (inactive)

CCN(CC)CCCNc1nc(=O)[nH]c(C)c1C(=O)Nc1ccc2c(c1)c1ccccc1n2CC
GI50 (786-0): > 100 µM (inactive) | GI50 (A549): > 100 µM (inactive) | GI50 (ACHN): > 100 µM (inactive) | GI50 (CAKI-1): > 100 µM (inactive) | GI50 (CCRF-CEM): > 100 µM (inactive) | GI50 (COLO 205): > 100 µM (inactive) | GI50 (DU-145): > 100 µM (inactive) | GI50 (EKVX): > 100 µM (inactive) | GI50 (HCC 2998): > 100 µM (inactive) | GI50 (HCT-116): > 100 µM (inactive) | GI50 (HCT-15): > 100 µM | GI50 (HL-60): > 100 µM (inactive) | GI50 (HOP-62): > 100 µM (inactive) | GI50 (HOP-92): > 100 µM (inactive) | GI50 (HT-29): > 100 µM (inactive) | GI50 (IGROV-1): > 100 µM (inactive) | GI50 (K562): > 100 µM (inactive) | GI50 (KM12): > 100 µM (inactive) | GI50 (LOX IMVI): > 100 µM (inactive) | GI50 (M14): > 100 µM (inactive) | GI50 (MCF7): > 100 µM (inactive) | GI50 (MDA-MB-231): > 100 µM (inactive) | GI50 (MDA-MB-435): > 100 µM (inactive) | GI50 (MDA-N): > 100 µM (inactive) | GI50 (MOLT-4): > 100 µM (inactive) | GI50 (Malme-3M): > 100 µM (inactive) | GI50 (NCI-H226): > 100 µM (inactive) | GI50 (NCI-H23): > 100 µM (inactive) | GI50 (NCI-H522): > 100 µM (inactive) | GI50 (NCI/ADR-RES): > 100 µM (inactive) | GI50 (OVCAR-3): > 100 µM (inactive) | GI50 (OVCAR-4): > 100 µM (inactive) | GI50 (OVCAR-5): > 100 µM (inactive) | GI50 (OVCAR-8): > 100 µM (inactive) | GI50 (PC-3): > 100 µM (inactive) | GI50 (RPMI-8226): > 100 µM (inactive) | GI50 (RXF 393): > 100 µM (inactive) | GI50 (SF-295): > 100 µM (inactive) | GI50 (SF-539): > 100 µM (inactive) | GI50 (SK-MEL-28): > 100 µM (inactive) | GI50 (SK-MEL-2): > 100 µM (inactive) | GI50 (SK-MEL-5): > 100 µM (inactive) | GI50 (SK-OV-3): > 100 µM (inactive) | GI50 (SN12C): > 100 µM (inactive) | GI50 (SNB-19): > 100 µM (inactive) | GI50 (SNB-75): > 100 µM (inactive) | GI50 (SW-620): > 100 µM (inactive) | GI50 (T47D): > 100 µM (inactive) | GI50 (TK-10): > 100 µM (inactive) | GI50 (U-251): > 100 µM (inactive) | GI50 (UACC-257): > 100 µM (inactive) | GI50 (UACC-62): > 100 µM (inactive) | GI50 (UO-31): > 100 µM (inactive)
